Key:
[1] = test system: A2780 ovarian cancer cell line; test: Growth inhibition of human ovarian cancer cells, 24 h exposure, Coulter cell count; assay type: cell-based
Protocol: (§1) The human ovarian cells were added at a density of 1×10^4 cells per well to 24-well tissue culture trays (Falcon Plastic, Becton Dickenson, Lincon Park, N.J., USA) and allowed to grow for 72 h before addition of the Ru(II) arene complexes. Stock solutions of the ruthenium compounds were made up fresh in deionised water and sonicated to ensure complete dissolution. These stock solutions were diluted with media to give final concentrations ranging between 0.1 and 100 μM. All compounds were evaluated at each concentration in duplicate wells, and complete assays were repeated a minimum of three times. Cisplatin or carboplatin was employed as a positive and comparative control in each experiment. After 24-hours exposure the drug-containing medium was removed, the cells washed with phosphate buffered saline (PBS) and fresh medium was added. Cell number was assessed after a further 72 h growth using a Coulter counter (Coulter Electronics Ltd, Luton, UK) and the IC50 values (concentration of drug causing 50% growth inhibition) calculated by linear regression analysis comparing the inhibitory effects of the drugs against the growth of untreated cells.
(§2) The cell lines and methods used are also described in Aird et al, Br. J. Cancer, (2002), 86, 1652–1657.
(§3) Using the above protocol, a number of compounds of the invention were tested on A2780 ovarian cancer cell line, on an A2780 ovarian cancer cell line resistant to cis-platin (A2780^CIS), and on an A2780 ovarian cancer cell line resistant to adriamycin (A2780^AD). Some of the compounds were tested on an A549 cell line.

A549 cell line = test: Growth inhibition, A549 cell line; assay type: cell-based; settings: A549 cells; Table 1
Protocol: as §1, §3

[2] = test system: A2780 ovarian cancer cell line resistant to adriamycin (A2780^AD); test: Growth inhibition, adriamycin resistant ovarian line; assay type: cell-based, human; settings: adriamycin resistant A2780 relative to A2780
Protocol: as §1, §2, §3

[3] = test system: A2780 ovarian cancer cell line resistant to cis-platin (A2780^CIS); test: Growth inhibition, cis-platin resistant ovarian line; assay type: cell-based, human; settings: cis-platin resistant A2780 relative to A2780
Protocol: as §1, §2, §3

[4] = 24 h exposure, cell number after further 72 h growth, Table 1
[5] = comparison with 1,2-diaminoethane analogues

Structure (SMILES)	IC50 [1, 4]	IC50 (A549 cell line)	IC50 [1, 5]	A2780^AD fold resistance ([2]; Table 1)	A2780^AD fold resistance [2, 5]	A2780^CIS Fold resistance ([3]; Table 1)	A2780^CIS Fold resistance [3, 5]
F[P-](F)(F)(F)(F)F.Nc1ccc([N+](=O)[O-])cc1N.[Cl][Ru+].c1ccc2c(c1)CCCC2 [Example 7, [(η^6-1,2,3,4-tetrahydronaphthalene)Ru(1,2-diamino-4-nitrobenzene)Cl]PF6]	59 µM	148 µM	–	–	–	–	–
F[P-](F)(F)(F)(F)F.F[P-](F)(F)(F)(F)F.Nc1ccc(-c2ccc(N)c(N)c2)cc1N.[Cl][Ru+].[Cl][Ru+].c1ccc(-c2ccccc2)cc1.c1ccc(-c2ccccc2)cc1 [EX 2, {[(η^6-Biphenyl)Ru(diaminobenzidine)Cl]PF6}2]	52 µM	–	–	–	–	–	–
F[P-](F)(F)(F)(F)F.Nc1cccc(O)c1N.[Cl][Ru+].c1ccc(-c2ccccc2)cc1 [EX 4, [(η^6-Biphenyl)Ru(2,3-diaminophenol)Cl]PF6]	32 µM	–	–	–	–	–	–
F[P-](F)(F)(F)(F)F.Nc1ccccc1N.[Cl][Ru+].c1ccc2c(c1)Cc1ccccc1C2 [EX 3, [(η^6-dihydroanthracene)Ru(o-phenylenediamine)Cl]PF6]	7 µM	–	7 µM	2 fold	2 fold	5 fold	5 fold
Nc1ccc2c(c1N)C(=O)c1ccccc1C2=O.[Cl-].[Cl][Ru+].c1ccc2c(c1)CCC2 [Example 8, [(η^6-indan)Ru(1,2-diaminoanthraquinone)Cl]Cl]	15 µM	48 µM	–	–	–	–	–
Cc1ccc(N)c(N)c1.F[P-](F)(F)(F)(F)F.[Cl][Ru+].c1ccc2c(c1)CCC2 [EX 5, [(η^6-indan)Ru(3,4-diaminotoluene)Cl]PF6]	4 µM	–	–	–	–	–	–
Nc1ccc2c(c1N)C(=O)c1ccccc1C2=O.[Cl-].[Cl][Ru+].c1ccc2c(c1)CCCC2 [Example 9, [(η^6-1,2,3,4-tetrahydronaphthalene)Ru(1,2-diaminoanthraquinone)Cl]Cl]	37 µM	61 µM	–	–	–	–	–
F[P-](F)(F)(F)(F)F.[Cl][Ru-]1[NH2+]c2ccccc2[NH2+]1.c1ccc(-c2ccccc2)cc1 [EX 1, [(η^6-Biphenyl)Ru(o-phenylenediamine)Cl]PF6]	5 µM	–	5 µM	0.8 fold	0.8 fold	1 fold	1 fold
Cc1ccc(C(C)C)cc1.F[P-](F)(F)(F)(F)F.Nc1ccccc1N.[Cl][Ru+] [EX 6, [(η^6-p-cymene)Ru(o-phenylenediamine)Cl]PF6]	11 µM	–	11 µM	0.6 fold	0.6 fold	1 fold	1 fold

Reference: patent US7241913B2, “Ruthenium compounds” (The University Court of the University of Edinburgh, priority 2003, dated 2007)
